Data published in publication PMC9765437, “Antibiotic Acyldepsipeptides Stimulate the Streptomyces Clp-ATPase/ClpP Complex for Accelerated Proteolysis” (mBio, 2022).
Starred links: 1 amine or outer side, 2 acyl side, 3 side chain; linkers in the order of their positions; H or OH if unused. Positions of bridges follow the written chain, without caps; N, C: chain ends. Non-standard residues stand in square brackets, D forms with d. Residues, ends and D or L forms follow the SMILES beside them. *: point of attachment. Octatrienoyl(2E,4E,6E) = C/C=C/C=C/C=C/C(=O)*; Pro(4R-Me) = C[C@H]1CN[C@H](C(=O)O)C1; AMC = Cc1cc(=O)oc2cc(N*)ccc12; Suc = O=C(CCC(=O)[*:2])[*:1]; NMeA = CN[C@@H](C)C(=O)O

What was measured:
ClpP1P2 = biological target: T1, ClpP1P2 (Streptomyces hawaiiensis, UniProt A0A6G5RDH7); experiment: peptidase activation assay, Suc-LY-AMC; assay type: biochemical; conditions: activator binding via ClpP1; 10 μM ADEP1, 4 μM total ClpP, pH 7.5, 30°C
T1 construct: gene clpP; untagged full-length ClpP1 mixed with C-terminally His6-tagged full-length ClpP2, expressed in E. coli SG1146a; heterotetradecamer of two homoheptameric rings; with ATP-dependent Clp protease proteolytic subunit 2

ClpC1 = biological target: T2, ClpC1 (Streptomyces hawaiiensis, UniProt A0A6G5RIJ6); conditions: 100 nM ATP, beta-casein, 30°C; ClpC1 alone and with ClpP1P2; unaffected by ADEP1
T2 construct: gene CEB94_23085
T2 sequence (A0A6G5RIJ6 1-841): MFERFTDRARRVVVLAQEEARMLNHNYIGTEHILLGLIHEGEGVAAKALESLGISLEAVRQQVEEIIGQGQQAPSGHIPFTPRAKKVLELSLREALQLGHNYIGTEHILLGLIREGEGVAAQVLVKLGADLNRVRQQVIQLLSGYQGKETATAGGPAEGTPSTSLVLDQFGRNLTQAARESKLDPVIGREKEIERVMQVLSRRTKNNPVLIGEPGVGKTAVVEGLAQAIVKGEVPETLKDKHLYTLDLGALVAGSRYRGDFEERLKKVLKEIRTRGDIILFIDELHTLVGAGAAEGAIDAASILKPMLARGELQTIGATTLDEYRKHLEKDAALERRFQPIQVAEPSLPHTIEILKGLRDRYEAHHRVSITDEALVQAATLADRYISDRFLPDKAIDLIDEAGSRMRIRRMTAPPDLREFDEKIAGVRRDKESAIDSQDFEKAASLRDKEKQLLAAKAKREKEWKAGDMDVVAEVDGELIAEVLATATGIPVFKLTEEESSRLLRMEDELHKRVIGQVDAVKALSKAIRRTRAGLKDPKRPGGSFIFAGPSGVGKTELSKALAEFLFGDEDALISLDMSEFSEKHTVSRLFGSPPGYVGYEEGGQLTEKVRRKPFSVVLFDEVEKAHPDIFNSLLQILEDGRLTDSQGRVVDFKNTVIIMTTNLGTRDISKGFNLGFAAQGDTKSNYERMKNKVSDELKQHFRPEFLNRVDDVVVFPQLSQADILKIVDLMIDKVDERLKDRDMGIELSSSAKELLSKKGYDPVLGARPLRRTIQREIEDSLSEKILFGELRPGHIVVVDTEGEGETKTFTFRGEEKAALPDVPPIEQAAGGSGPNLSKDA

ClpP1 = biological target: T3, ClpP1 (Streptomyces hawaiiensis, UniProt A0A6G5RDH7); experiment: fluorogenic peptidase assay; assay type: biochemical; conditions: with ADEP1 as activator; 100 μM substrate, pH 7.5, 30°C
T3 construct: gene clpP; full-length unprocessed, untagged, expressed in E. coli SG1146a (clpP deletion), anion exchange; ADEP-induced processing between G24 and P25
T3 sequence (A0A6G5RDH7 1-219): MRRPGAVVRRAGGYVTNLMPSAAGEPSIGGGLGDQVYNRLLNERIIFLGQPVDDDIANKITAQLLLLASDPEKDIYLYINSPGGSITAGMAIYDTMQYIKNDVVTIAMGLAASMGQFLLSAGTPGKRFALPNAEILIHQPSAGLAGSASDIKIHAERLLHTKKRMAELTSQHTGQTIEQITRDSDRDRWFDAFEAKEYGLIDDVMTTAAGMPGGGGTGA

[1] = biological target: the molecule itself; experiment: native gel or EMSA; native PAGE without cross-linker, with ADEP1: ClpP1 and ClpP2 (10 μM each) with 60 μM or 25 μM ADEP1 (ClpP:ADEP1 1:3 or 1:1.25), 3 h at 30°C; immunoblot with anti-ClpP1 or anti-6His
[2] = biological target: the molecule itself; experiment: SEC; Superdex 200 Increase 10/300 GL; 80 μM protein, DMSO (no ADEP1), 30 min at 30°C; buffer GF (50 mM HEPES-KOH, 150 mM KCl, 20 mM MgCl2, 10% glycerol, 1 mM DTT, pH 7.5)

## C/C=C/C=C/C=C/C(=O)N[C@@H](Cc1ccccc1)C(=O)N[C@H]1COC(=O)[C@@H]2C[C@@H](C)CN2C(=O)[C@H](C)NC(=O)[C@H](C)N(C)C(=O)[C@@H]2CCCN2C1=O [ADEP1] ({Octatrienoyl(2E,4E,6E)}-FSP[NMeA]A[Pro(4R-Me)]; ester 2-C)
ClpP1P2
  peptidase activation assay, Suc-LY-AMC: ADEP1 clearly induced the hydrolysis of Suc-LY-AMC by either ClpP1 alone or by the mixed complex

## Nc1ncnc2c1ncn2[C@@H]1O[C@H](COP(=O)(O)OP(=O)(O)OP(=O)(O)O)[C@@H](O)[C@H]1O [ATP]
ClpC1
  ADP-Glo ATP turnover assay: directly measured the turnover of ATP to ADP by ClpC1 in casein degradation assays

## Cc1cc(=O)oc2cc(NC(=O)[C@H](Cc3ccc(O)cc3)NC(=O)[C@H](CC(C)C)NC(=O)CCC(=O)O)ccc12 [Suc-LY-AMC] (Suc-Leu-Tyr-{AMC})
ClpP1
  fluorogenic peptidase assay: ADEP1 clearly induced the hydrolysis of Suc-LY-AMC by either ClpP1 alone

B1: ClpP2 of Streptomyces hawaiiensis NRRL 15010, C-terminally His6-tagged (enzyme, UniProt A0A5B9BIX9 1-235, looked up)
chain: MNQFPGSGIYDRMHAVQDMSASQGRYTGPQAESRYIIPRFVERTSQGIREYDPYAKLFEERVIFLGVQIDDASANDVMAQLLCLESMDPDRDISVYINSPGGSFTALTAIYDTMQYVKPDVQTVCMGQAASAAAVLLAAGTPGKRMALPNARVLIHQPYSETGRGQVSDLEIAANEILRMRSQLEDMLAKHSTTPVEKIREDIERDKILTAEDALSYGLIDQVISTRKMDNSSLR
notes: ClpP2, Clp protease proteolytic subunit 2 of Streptomyces hawaiiensis NRRL 15010, orf CEB94_14105 of GenBank CP021978.1; from the first start codon, unprocessed; also called ClpP2-His6; ClpP2His; source: E. coli SG1146a (ΔclpP), purified (Ni-NTA); also co-expressed with ClpP1 from pETDUET-1, in lysate; not shown: His6, C-terminal, kept
[1]
  stoichiometry N: 7

B2: ClpP2 of Streptomyces hawaiiensis NRRL 15010, untagged (enzyme, UniProt A0A5B9BIX9 1-235, looked up)
chain: B1 chain
notes: ClpP2 of Streptomyces hawaiiensis NRRL 15010, orf CEB94_14105 of GenBank CP021978.1; unprocessed; calculated mass of the heptamer 182.2 kDa; also called native ClpP2; source: E. coli SG1146a (ΔclpP), purified (anion-exchange chromatography)
[2]
  stoichiometry N: 7
